Like-named read-outs stand apart in the source and are kept apart here. Non-standard residues stand in square brackets, D forms with d. Residues, ends and D or L forms follow the SMILES beside them. ξ: configuration not given here. *: point of attachment. Malonyl(2,2-Me2,histaminyl) = CC(C)(C(=O)NCCc1cnc[nH]1)C(=O)*; Ala(1H-tetrazol-5-yl) = N[C@@H](Cc1nnn[nH]1)C(=O)O; ξαMePhe(2-F) = CC(N)(Cc1ccccc1F)C(=O)O; αMeF = C[C@](N)(Cc1ccccc1)C(=O)O; Nle = CCCC[C@H](N)C(=O)O; Aib = CC(C)(N)C(=O)O; Alloc = C=CCOC(=O)*
Assays:
human GLP1 receptor = biological target: T1, human GLP1 receptor (Homo sapiens, UniProt P43220); assay: cAMP accumulation assay (HTRF), functional agonism of human GLP1 receptor in HEK cells; format: cell-based; settings: for EC50: read-out: Human GLP-1R agonist cAMP pEC50 (converted)
T1 construct: expressed in transfected cells; host or cells: HEK cells, BacMam virus transduction
T1 sequence (P43220 24-463): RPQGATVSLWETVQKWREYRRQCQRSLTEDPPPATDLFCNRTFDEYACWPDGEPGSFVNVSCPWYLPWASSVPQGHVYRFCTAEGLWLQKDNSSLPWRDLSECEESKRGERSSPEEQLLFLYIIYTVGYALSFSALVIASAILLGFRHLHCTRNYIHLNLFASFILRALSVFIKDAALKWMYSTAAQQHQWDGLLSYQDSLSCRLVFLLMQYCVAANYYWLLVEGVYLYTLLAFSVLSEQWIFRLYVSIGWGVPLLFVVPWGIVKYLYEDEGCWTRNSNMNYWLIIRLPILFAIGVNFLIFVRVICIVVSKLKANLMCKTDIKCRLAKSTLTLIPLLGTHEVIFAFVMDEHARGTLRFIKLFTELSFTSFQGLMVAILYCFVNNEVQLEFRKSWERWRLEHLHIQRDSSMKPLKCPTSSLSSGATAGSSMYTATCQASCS
Description: The functional activity of the peptides were assessed using a HTRF cAMP assay. pEC50 values are quoted.
cAMP production upon agonist stimulation of human GLP2 or GLP1 receptor was assessed utilizing HiRange cAMP kit (Cisbio). In brief, HEK cells were infected with either human GLP2 or GLP1 receptor BacMam virus for 24 hours and frozen for later use in the assay. […] Cells were prepared in the assay buffer (HBSS (Lonza) supplemented with 0.5 mM IBMX (Tocris)). After 45 min incubation at 37° C., the reaction was stopped by addition of the HTRF detection reagents in the lysis buffer provided in the kit.

human GLP2 receptor = biological target: T2, human GLP2 receptor (Homo sapiens, UniProt O95838); assay: cAMP accumulation assay (HTRF), functional agonism of human GLP2 receptor in HEK cells; settings: for Emax: HEK293, read-out: Human GLP-2R agonist cAMP Emax;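 as to all read-outs here: HEK cells transduced via BacMam to express human GLP2 receptor, agonist-stimulated cAMP measured by HTRF after 45 min at 37 °C in HBSS with 0.5 mM IBMX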
T2 sequence (O95838 1-553): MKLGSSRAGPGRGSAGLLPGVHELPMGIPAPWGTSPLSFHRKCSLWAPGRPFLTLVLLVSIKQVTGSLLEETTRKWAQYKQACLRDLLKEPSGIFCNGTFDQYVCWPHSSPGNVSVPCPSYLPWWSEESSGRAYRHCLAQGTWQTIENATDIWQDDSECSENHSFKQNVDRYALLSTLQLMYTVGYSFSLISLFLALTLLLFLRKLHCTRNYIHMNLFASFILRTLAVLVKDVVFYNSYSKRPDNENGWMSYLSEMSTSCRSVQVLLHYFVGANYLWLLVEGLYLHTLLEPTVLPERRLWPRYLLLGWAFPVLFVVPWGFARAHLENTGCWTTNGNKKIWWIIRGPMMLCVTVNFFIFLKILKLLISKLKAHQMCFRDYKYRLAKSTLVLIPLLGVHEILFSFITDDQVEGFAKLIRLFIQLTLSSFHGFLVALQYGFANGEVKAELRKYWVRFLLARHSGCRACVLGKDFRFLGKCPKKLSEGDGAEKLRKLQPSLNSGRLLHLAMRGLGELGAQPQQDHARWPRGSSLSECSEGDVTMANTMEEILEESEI

[1] = HEK293, HEK cells, human GLP1 receptor BacMam, 45 min 37° C., read-out: Human GLP-1R agonist cAMP Emax
[2] = HEK293, read-out: Human GLP-1R agonist cAMP Emax
[3] = HEK cells, human GLP1 receptor BacMam, 45 min 37° C.

Emax (human GLP1 receptor; [1]) [%]	Emax (human GLP2 receptor) [%]	EC50 (human GLP1 receptor; [3]) [nM]	EC50 (human GLP2 receptor) [nM]	Compound	Emax (human GLP1 receptor; [2]) [%]
94.1	102	20	0.0126	C=CCOC(=O)NCCCC[C@H](NC(=O)[C@H](CC(C)C)NC(=O)[C@H](CC(=O)O)NC(=O)[C@H](CC(C)C)NC(=O)[C@@H](NC(=O)[C@@H](NC(=O)[C@@H](Cc1ccccc1)NC(=O)[C@H](CCCC)NC(=O)[C@H](CCC(=O)O)NC(=O)[C@H](CC(=O)O)NC(=O)[C@H](CO)NC(=O)[C@H](Cc1ccccc1)NC(=O)[C@H](CO)NC(=O)CNC(=O)[C@H](Cc1nn[nH]n1)NC(=O)C(C)(C)C(=O)NCCc1c[nH]cn1)[C@@H](C)O)[C@@H](C)CC)C(=O)N[C@@H](C)C(=O)N[C@@H](C)C(=O)NC(C)(C)C(=O)N[C@@H](CC(=O)O)C(=O)N[C@@H](Cc1ccccc1)C(=O)N[C@H](C(=O)N[C@@H](CC(N)=O)C(=O)N[C@@H](Cc1c[nH]c2ccccc12)C(=O)N[C@@H](CC(C)C)C(=O)N[C@H](C(=O)N[C@@H](CCC(N)=O)C(=O)N[C@H](C(=O)N[C@@H](CCCCN)C(=O)N[C@H](C(=O)N[C@H](C(=O)N[C@@H](Cc1ccccc1)C(N)=O)[C@@H](C)O)[C@@H](C)CC)[C@@H](C)O)[C@@H](C)CC)[C@@H](C)CC [Example 9] ({Malonyl(2,2-Me2,histaminyl)}-[Ala(1H-tetrazol-5-yl)]GSFSDE[Nle][dF]TILDLK(Alloc)AA[Aib]DFINWLIQTKITF-NH2)	
96.4	101	0.1	0.01	C=CCOC(=O)NCCCC[C@H](NC(=O)[C@H](CC(C)C)NC(=O)[C@H](CC(=O)O)NC(=O)[C@H](CC(C)C)NC(=O)[C@@H](NC(=O)[C@@H](NC(=O)[C@@H](Cc1ccccc1)NC(=O)[C@H](CCCC)NC(=O)[C@H](CCC(=O)O)NC(=O)[C@H](CC(=O)O)NC(=O)[C@H](CO)NC(=O)[C@](C)(Cc1ccccc1)NC(=O)[C@H](CO)NC(=O)CNC(=O)[C@H](Cc1nn[nH]n1)NC(=O)C(C)(C)C(=O)NCCc1c[nH]cn1)[C@@H](C)O)[C@@H](C)CC)C(=O)N[C@@H](C)C(=O)N[C@@H](C)C(=O)N[C@@H](CCCCN)C(=O)N[C@@H](CC(=O)O)C(=O)N[C@@H](Cc1ccccc1)C(=O)N[C@H](C(=O)N[C@@H](CC(N)=O)C(=O)N[C@@H](Cc1c[nH]c2ccccc12)C(=O)N[C@@H](CC(C)C)C(=O)N[C@H](C(=O)N[C@@H](CCC(N)=O)C(=O)N[C@H](C(=O)N[C@@H](CCCCN)C(=O)N[C@H](C(=O)N[C@H](C(=O)N[C@@H](CC(=O)O)C(N)=O)[C@@H](C)O)[C@@H](C)CC)[C@@H](C)O)[C@@H](C)CC)[C@@H](C)CC [Example 10] ({Malonyl(2,2-Me2,histaminyl)}-[Ala(1H-tetrazol-5-yl)]GS[αMeF]SDE[Nle][dF]TILDLK(Alloc)AAKDFINWLIQTKITD-NH2)	

Second part, the molecule before the results:

Compound	Emax (human GLP1 receptor; [1]) [%]	Emax (human GLP2 receptor) [%]	EC50 (human GLP1 receptor; [3]) [nM]	EC50 (human GLP2 receptor) [nM]	Emax (human GLP1 receptor; [2]) [%]
C=CCOC(=O)NCCCC[C@H](NC(=O)[C@H](CC(C)C)NC(=O)[C@H](CC(=O)O)NC(=O)[C@H](CC(C)C)NC(=O)[C@@H](NC(=O)[C@@H](NC(=O)[C@@H](Cc1ccccc1)NC(=O)[C@H](CCCC)NC(=O)[C@H](CCC(=O)O)NC(=O)[C@H](CC(=O)O)NC(=O)[C@H](CO)NC(=O)C(C)(Cc1ccccc1F)NC(=O)[C@H](CO)NC(=O)CNC(=O)[C@H](CC(=O)O)NC(=O)C(C)(C)C(=O)NCCc1c[nH]cn1)[C@@H](C)O)[C@@H](C)CC)C(=O)N[C@@H](C)C(=O)N[C@@H](C)C(=O)N[C@@H](CCCCN)C(=O)N[C@@H](CC(=O)O)C(=O)N[C@@H](Cc1ccccc1)C(=O)N[C@H](C(=O)N[C@@H](CC(N)=O)C(=O)N[C@@H](Cc1c[nH]c2ccccc12)C(=O)N[C@@H](CC(C)C)C(=O)N[C@H](C(=O)N[C@@H](CCC(N)=O)C(=O)N[C@H](C(=O)N[C@@H](CCCCN)C(=O)N[C@H](C(=O)N[C@H](C(=O)N[C@@H](CC(=O)O)C(N)=O)[C@@H](C)O)[C@@H](C)CC)[C@@H](C)O)[C@@H](C)CC)[C@@H](C)CC (stereo partly shown) [Example 4] ({Malonyl(2,2-Me2,histaminyl)}-DGS[ξαMePhe(2-F)]SDE[Nle][dF]TILDLK(Alloc)AAKDFINWLIQTKITD-NH2; C-terminus assumed)	98.1	99.3			
C=CCOC(=O)NCCCC[C@H](NC(=O)[C@H](CC(C)C)NC(=O)[C@H](CC(=O)O)NC(=O)[C@H](CC(C)C)NC(=O)C(C)(C)NC(=O)[C@@H](NC(=O)[C@@H](Cc1ccccc1)NC(=O)[C@H](CCCC)NC(=O)[C@H](CCC(=O)O)NC(=O)[C@H](CC(=O)O)NC(=O)[C@H](CO)NC(=O)[C@H](Cc1ccccc1)NC(=O)[C@H](CO)NC(=O)CNC(=O)[C@H](Cc1nn[nH]n1)NC(=O)C(C)(C)C(=O)NCCc1c[nH]cn1)[C@@H](C)O)C(=O)N[C@@H](C)C(=O)N[C@@H](C)C(=O)NC(C)(C)C(=O)N[C@@H](CC(=O)O)C(=O)N[C@@H](Cc1ccccc1)C(=O)N[C@H](C(=O)N[C@@H](CC(N)=O)C(=O)N[C@@H](Cc1c[nH]c2ccccc12)C(=O)N[C@@H](CC(C)C)C(=O)N[C@H](C(=O)N[C@@H](CCC(N)=O)C(=O)N[C@H](C(=O)N[C@@H](CCCCN)C(=O)N[C@H](C(=O)N[C@H](C(=O)N[C@@H](Cc1ccccc1)C(N)=O)[C@@H](C)O)[C@@H](C)CC)[C@@H](C)O)[C@@H](C)CC)[C@@H](C)CC [Example 5] ({Malonyl(2,2-Me2,histaminyl)}-[Ala(1H-tetrazol-5-yl)]GSFSDE[Nle][dF]T[Aib]LDLK(Alloc)AA[Aib]DFINWLIQTKITF-NH2)		103			93.6
C=CCOC(=O)NCCCC[C@H](NC(=O)[C@H](C)NC(=O)[C@H](C)NC(=O)[C@H](CCCCNC(=O)OCC=C)NC(=O)[C@H](CC(C)C)NC(=O)[C@H](CC(=O)O)NC(=O)[C@H](CC(C)C)NC(=O)C(C)(C)NC(=O)[C@@H](NC(=O)[C@@H](Cc1ccccc1)NC(=O)[C@H](CCCC)NC(=O)[C@H](CCC(=O)O)NC(=O)[C@H](CC(=O)O)NC(=O)[C@H](CO)NC(=O)[C@H](Cc1ccccc1)NC(=O)[C@H](CO)NC(=O)CNC(=O)[C@H](Cc1nn[nH]n1)NC(=O)C(C)(C)C(=O)NCCc1c[nH]cn1)[C@@H](C)O)C(=O)N[C@@H](CC(=O)O)C(=O)N[C@@H](Cc1ccccc1)C(=O)N[C@H](C(=O)N[C@@H](CC(N)=O)C(=O)N[C@@H](Cc1c[nH]c2ccccc12)C(=O)N[C@@H](CC(C)C)C(=O)N[C@H](C(=O)N[C@@H](CCC(N)=O)C(=O)N[C@H](C(=O)N[C@@H](CCCCN)C(=O)N[C@H](C(=O)N[C@H](C(=O)N[C@@H](Cc1ccccc1)C(N)=O)[C@@H](C)O)[C@@H](C)CC)[C@@H](C)O)[C@@H](C)CC)[C@@H](C)CC [Example 6] ({Malonyl(2,2-Me2,histaminyl)}-[Ala(1H-tetrazol-5-yl)]GSFSDE[Nle][dF]T[Aib]LDLK(Alloc)AAK(Alloc)DFINWLIQTKITF-NH2)	96.4	103	10	0.0316	
C=CCOC(=O)NCCCC[C@H](NC(=O)[C@H](CC(C)C)NC(=O)[C@H](CC(=O)O)NC(=O)[C@H](CC(C)C)NC(=O)C(C)(C)NC(=O)[C@@H](NC(=O)[C@@H](Cc1ccccc1)NC(=O)[C@H](CCCC)NC(=O)[C@H](CCC(=O)O)NC(=O)[C@H](CC(=O)O)NC(=O)[C@H](CO)NC(=O)[C@H](Cc1ccccc1)NC(=O)[C@H](CO)NC(=O)[C@@H](C)NC(=O)[C@H](Cc1nn[nH]n1)NC(=O)C(C)(C)C(=O)NCCc1c[nH]cn1)[C@@H](C)O)C(=O)N[C@@H](C)C(=O)N[C@@H](C)C(=O)NC(C)(C)C(=O)N[C@@H](CC(=O)O)C(=O)N[C@@H](Cc1ccccc1)C(=O)N[C@H](C(=O)N[C@@H](CC(N)=O)C(=O)N[C@@H](Cc1c[nH]c2ccccc12)C(=O)N[C@@H](CC(C)C)C(=O)N[C@H](C(=O)N[C@@H](CCC(N)=O)C(=O)N[C@H](C(=O)N[C@@H](CCCCN)C(=O)N[C@H](C(=O)N[C@H](C(=O)N[C@@H](Cc1ccccc1)C(N)=O)[C@@H](C)O)[C@@H](C)CC)[C@@H](C)O)[C@@H](C)CC)[C@@H](C)CC [Example 7] ({Malonyl(2,2-Me2,histaminyl)}-[Ala(1H-tetrazol-5-yl)][dA]SFSDE[Nle][dF]T[Aib]LDLK(Alloc)AA[Aib]DFINWLIQTKITF-NH2)	62.2	102	39.8	0.01	
C=CCOC(=O)NCCCC[C@H](NC(=O)[C@H](C)NC(=O)C(C)(C)NC(=O)[C@H](CCCCNC(=O)OCC=C)NC(=O)[C@H](CC(N)=O)NC(=O)[C@H](CC(=O)O)NC(=O)[C@H](CC(C)C)NC(=O)C(C)(C)NC(=O)[C@@H](NC(=O)[C@H](CC(N)=O)NC(=O)[C@H](CCCC)NC(=O)[C@H](CCC(=O)O)NC(=O)[C@H](CC(=O)O)NC(=O)[C@H](CO)NC(=O)[C@H](Cc1ccccc1)NC(=O)[C@H](CO)NC(=O)[C@@H](C)NC(=O)[C@H](Cc1nn[nH]n1)NC(=O)C(C)(C)C(=O)NCCc1c[nH]cn1)[C@@H](C)O)C(=O)N[C@@H](CC(=O)O)C(=O)N[C@@H](Cc1ccccc1)C(=O)N[C@H](C(=O)N[C@@H](CC(N)=O)C(=O)N[C@@H](Cc1c[nH]c2ccccc12)C(=O)N[C@@H](CC(C)C)C(=O)N[C@H](C(=O)N[C@@H](CCC(N)=O)C(=O)N[C@H](C(=O)N[C@@H](CCCNC(=N)N)C(=O)N[C@H](C(=O)N[C@H](C(=O)N[C@@H](Cc1ccccc1)C(N)=O)[C@@H](C)O)[C@@H](C)CC)[C@@H](C)O)[C@@H](C)CC)[C@@H](C)CC [Example 8] ({Malonyl(2,2-Me2,histaminyl)}-[Ala(1H-tetrazol-5-yl)][dA]SFSDE[Nle]NT[Aib]LDNK(Alloc)[Aib]AK(Alloc)DFINWLIQTRITF-NH2)		104			93.3

From patent publication US20230295260A1, “GLP RECEPTOR AGONISTS” (HEPTARES THERAPEUTICS LIMITED, priority 2020, published 2023)
